The text below walks through data of patent publication US9422226B2 (Biogen MA Inc., priority 2011, dated 2016).

A short description of data set [1]: Particle size of dimethyl fumarate by laser diffraction during and after drying. The data set is classed as physicochemical. The method, then: The particle sizes reported here are based on a measured distribution. In one embodiment, the particle sizes are measured using a Laser Diffraction technique that correlates light scattering to particle volume on which “effective length or effective diameter” is calculated. The distribution is based on a measurement of thousands of particles. Particles samples can be in dry form or in slurry. In one embodiment, the instrument used to determine particle size/distribution is a Beckman Coulter LS230 or a Malvern Mastersizer.
The effect of temperature, pressure, and drying time on particle size was also investigated. […] Development studies examined the extent of sublimation under the drying conditions employed in the manufacturing plant. The first 3 entries in Table 5 are lab samples collected after 7, 24, and 48 hours drying time. The result from the three lab samples confirms that drying has no effects on the particle size. The particle size of lab samples were also compared to two representative plant samples which were dried for 48 hours and 72 hours. There is no change in particle size during drying.

Data set [2] in a line: Lab crystallization experiments with different cooling rates, mean particle size. The data set is classed as physicochemical. Particulars: isolated from the reaction mixture prior to milling. The method, then:
In the current process the mixture was cooled from reaction temperature 65° C. to the end temperature 20-25° C. in about 8 hours, stirred for 1-2 hours, and filtered to isolate the product.
Table 2 highlights results from laboratory crystallization experiments with cooling rates chosen within manufacturing equipment capabilities.

Data set [3] in a line: Mean particle size before and after jet milling. The data set is classed as physicochemical. The text has this:
These particles were milled to produce particles of a suitable size for consistent handling and uniformity for drug product processing. The target specification for particle size is ≧97% of the particles <250 μm. The dimethyl fumarate drug substance was milled consistently to meet this specification using a jet mill. […] It is evident that the milling operation is capable of producing a drug substance of suitable quality.

A further data set concerns serum proteins. The conditions noted are these: cited from earlier work.
Data set [4] is described as follows: Methanolysis of dimethyl sulfate, 1H NMR kinetics. The data set is classed as physicochemical. Particulars: 65° C., 1.5 mole % DMS in dry methanol. How it is done:
Solutions of 1.5 mole % DMS and methanol were heated in a sealed tube to 35° C. and the time-dependent NMR spectra were collected for these mixtures. […] Use of NMR data helped confirm the reaction mechanism proposed in Scheme 2.
The reaction proceeded more slowly at 35° C. but clearly confirms the formation of dimethyl ether (DME). The gradual downfield shift of the exchangeable OH resonance (4.8 ppm) supports the generation of a strong acid i.e., MMS (Scheme 5). Another set of duplicate experiments were performed under the reaction conditions at 65° C. (again spiking 1.5 mole % DMS into dry methanol with <0.01% water and no sulfuric acid) and monitoring the reaction for 60 minutes. This reaction was considered to be essentially irreversible under nominal plant process conditions since the reaction vessels are not pressurized and the resultant dimethyl ether would bubble out of solution.

Data set [5] is described as follows: Hydrolysis of dimethyl sulfate, water spiking, 1H NMR kinetics. The data set is classed as physicochemical. The conditions noted are these: 65° C., water 10.5, 14.0, 17.7 mole % in DMS-methanol. How it is done: The hydrolysis rate of dimethyl sulfate was determined by spiking known amounts of water into a mixture of DMS and methanol. Water was spiked into DMS-methanol solutions at three different levels—10.5, 14.0, and 17.7 mole % equivalents. The reactions were monitored for 60 minutes at 65° C. and the DMS peak integrals obtained.
The rate constant for the hydrolysis of DMS (k−2) was derived by fitting all the data to a DynoChem model that used the time-dependant peak integral data.

For data set [6] the following is noted: high doses; cited from earlier work.
In data set [7] the test system is Ehrlich solid tumor cells. Particulars: in mice; cited from earlier work.
Data set [8] is described as follows: Formation of monomethyl sulfate from sulfuric acid and methanol, 1H NMR kinetics. Particulars: 65° C., dry methanol and concentrated sulfuric acid; ±7% RSD. In kind it is physicochemical. How it is done: All ^1H NMR spectra were obtained in and referenced against DMSO-d6 at 2.5 ppm using a Varian 500 MHz NMR. Concentrated sulfuric acid, fumaric acid, and dimethyl fumarate were obtained from the Sigma-Aldrich Chemical Company. Authentic standards of MMS (Na salt) and DMS were also obtained from Sigma-Aldrich. For spiking identification purposes, an authentic sample of MMS was prepared by passing a methanolic solution of the commercially available sodium salt through Amberlite FPA 22 resin (H form, 10 molar equivalents), and concentrating to an oil on a flash evaporator.
All small scale reactions performed in the study were magnetically stirred and carried out using an insulated oil bath maintained at 65 deg±1° C. […]
Sampling of reactions involved removal of a minimum of 150-400 μL of reaction solution, addition to DMSO-d6 (lock solvent) as required to make up a 650 μL solution in each NMR tube. Samples were chilled in an ice/water bath, and analyzed within 5-10 minutes of their preparation. […]
Dry methanol (<0.01% water) was mixed with concentrated dry sulfuric acid and heated to 65° C. […] Equilibrium was reached within 1 hour, resulting in an essentially quantitative conversion of sulfuric acid to monomethyl sulfate. […] The second-order forward rate constant (k1) for the formation of MMS at 65° C. was determined to be 6.4×10^−5 L/mol-sec with a confidence interval of ±7% RSD.

The nature of data set [9]: Hydrolysis of monomethyl sulfate, water spiking, 1H NMR. The data set is classed as physicochemical. How it is done:
The rate constant of this reaction was measured by spiking water into solutions containing MMS (1.5 mole %) and monitoring the heated, sealed, vessel by ^1H NMR for 45 hours. Water was spiked into the matrix at two different levels—6 mole % and 12 mole %. […] In order to develop the larger model, the MMS equilibrium constant K (k1/k−1) was assigned a value of 999:1 in favor of the forward reaction, thus conservatively defining k−1 as 6.4×10^−8 L/mol-sec.

For data set [10] the following is noted: cited from earlier work; for rate constant for the hydrolysis of MMS, extrapolated: at 25° C.

Structures can show the parent of a compound that is named as a salt. Where two headings read alike, the source gives them in different places.

Take `COC(=O)/C=C/C(=O)OC` [dimethyl fumarate]: the “Particle Size by Laser Diffraction, D10” value in [1] (drying time 7 h (lab)) came out at 328 μm; in [1] (drying time 24 h (lab)), 323 μm; in [1] (drying time 48 h (lab)) it was 340 μm; in data set [1] (drying time 48 h (plant)), 332 μm; in [1] (drying time 72 h (plant)) it was 327 μm. The “Particle Size by Laser Diffraction, D50” value is 566 μm in data set [1] (drying time 7 h (lab)); 562 μm in data set [1] (drying time 24 h (lab)); 567 μm in data set [1] (drying time 48 h (lab)); 561 μm in data set [1] (drying time 48 h (plant)); 562 μm in data set [1] (drying time 72 h (plant)). For the same molecule, the “Particle Size by Laser Diffraction, D90” value in data set [1] (drying time 7 h (lab)) turned out to be 850 μm; in [1] (drying time 24 h (lab)) it was 843 μm; in [1] (drying time 48 h (lab)) it was 845 μm; in [1] (drying time 48 h (plant)), 828 μm; in data set [1] (drying time 72 h (plant)), 834 μm. The “Particle Size by Laser Diffraction, D97” value in data set [1] (drying time 7 h (lab)) was found to be 987 μm; in data set [1] (drying time 24 h (lab)), 979 μm; in data set [1] (drying time 48 h (lab)), 980 μm; in [1] (drying time 48 h (plant)), 956 μm; in data set [1] (drying time 72 h (plant)), 963 μm. The “Particle Size by Laser Diffraction, Mean” value is recorded as 524 μm in [1] (drying time 7 h (lab)); 521 μm in data set [1] (drying time 24 h (lab)); 535 μm in data set [1] (drying time 48 h (lab)); 536 μm in data set [1] (drying time 48 h (plant)); 524 μm in data set [1] (drying time 72 h (plant)). Moreover, the “Mean Particle Size” value in data set [2] (cooling rate 5° C./h) is 475 μm; in data set [2] (cooling rate 8° C./h) it was 448 μm; in data set [2] (cooling rate 15° C./h), 475 μm; in data set [3] (after jet milling) it was 20-40 μm; in data set [3] (isolated from the dryer, before milling), 550-650 μm.
Regarding `COC(=O)/C=C/C(=O)O` [methyl hydrogen fumarate], the “bound by serum proteins” value with serum proteins was 30%.
`COS(=O)(=O)OC` [DMS, dimethyl sulfate]: the “rate constant for the methanolysis of DMS (k3)” value in data set [4] was 4.1e-05 M⁻¹ s⁻¹. Moreover, the “rate constant for the hydrolysis of DMS (k−2)” value in data set [5] is 0.00023 M⁻¹ s⁻¹.
With `O=C(O)/C(O)=C(\O)C(=O)O` [dihydroxy fumaric acid], in [6], the “side effects and toxicity” value is listed as “high toxicity”.
For the molecule `O=C(O)/C=C/C(=O)O` [fumaric acid], the “growth of Ehrlich solid tumor cells” value in data set [7] is on record as “impede the growth”.
Turning to `NC(=O)/C=C/C(N)=O` [fumaramide], the “side effects and toxicity” value in data set [6] was “high toxicity”.
Regarding `N#C/C=C/C#N` [fumaronitrile], in data set [6], the “side effects and toxicity” value was “high toxicity”.
`COS(=O)(=O)O` [MMS, monomethyl sulfate]: the “second-order forward rate constant (k1) for the formation of MMS” value in [8] is 6.4e-05 M⁻¹ s⁻¹. In data set [9] (MMS 1.5 mole %, water 6 and 12 mole %, heated sealed vessel, 45 hours), the “MMS level after water spiking” value is “virtually unchanged”. Also, the “hydrolysis rate constant k−1” value in [9] (from K (k1/k−1) assigned 999:1, conservative) came out at 6.4e-08 M⁻¹ s⁻¹. Moreover, the “equilibrium constant for the hydrolysis of monomethyl sulfate” value in data set [10] (T=100° C. to 150° C., sulfuric acid 1-4 M) was 0.027 M⁻¹. Besides, the “rate constant for the hydrolysis of MMS, extrapolated” value in [10] (1M HCl, T=40° C. to 100° C.) was 1.7e-08 M⁻¹ s⁻¹; in [10] (pH=3 to 10, T=100° C. to 190° C.) it was 2.2e-11 M⁻¹ s⁻¹.
